According to EP3516395B1, “METHOD FOR DETERMINING AFFINITY BETWEEN LIGANDS AND A TARGET” (Plant Advanced Technologies Pat, priority 2016, dated 2018):
Like-named read-outs stand apart in the source and are kept apart here.

Legend:
trypsine [1] = assay: Affinity by binding, ultrafiltration and UPLC-MS, control target (Example 5); details: chromatogram C, figure 3
Method: (§1) Une solution de travail de hyaluronidase de testicules bovins à 5 mg/mL est préparée en dissolvant de la poudre de l'enzyme lyophilisée dans un tampon phosphate salin à 50 mM, avec un pH de 7,0. Une solution de travail de trypsine (la cible témoin) est préparée de la même manière que celle de hyaluronidase. L'échantillon est préparé en utilisant l'un des solvants suivants : des glycols, DMSO (diméthylsulfoxide), l'éthanol pur ou en solution dans l'eau. La concentration dans l'échantillon de ligand initial doit être dans la gamme de 0,75 à 1 mM. Le ligand choisi (quercétine) est un inhibiteur connu de l'hyaluronidase (Asian J. Chem. 2013, 25, 10262-10266). Un échantillon de référence est préparé également en diluant l'échantillon de 10 à 20 fois dans une solution de trois quarts de volume d'acétonitrile et d'un quart de volume d'eau. […]

trypsine [2] = details: 2660 µM; International Journal of Food Science & Technology 2014, 49, 1063-1069; cited from earlier work
hyaluronidase = details: 200 µM; Asian J. Chem. 2013, 25, 10262-10266; cited from earlier work
[3] = test system: hyaluronidase de testicules bovins; assay: Affinity by binding, ultrafiltration and UPLC-MS (Example 5); details: chromatogram B, figure 3
Method: as §1

[4] = test system: collagénase issue de Clostridium histolyticum; assay: Relative affinity by competitive binding, ultrafiltration and LC-MS (Examples 2, 3, 6); details: for Affinités relatives: reference 3,5-DCQ
Method: Une solution de travail de collagénase issue de Clostridium histolyticum à 6.25 mg/mL est préparée en dissolvant de la poudre de l'enzyme lyophilisée dans 50 mM d'acétate d'ammonium, avec un pH de 7.5, ajusté par une solution aqueuse d'ammoniac. L'échantillon est préparé en utilisant l'un des solvants suivants : des glycols, le DMSO (diméthylsulfoxide), l'éthanol, pur ou en solution dans l'eau. La concentration dans l'échantillon des ligands initiaux est équimolaire et doit être dans la gamme de 0,75 à 1 mM. Les ligands choisis étaient des isomères d'acide 3,5-dicaféoylquinique (noté 3,5-DCQ par la suite) et des isomères d'esters d'acide 3,5-dicaféoylquinique et de dipropylène glycol (noté 3,5-DCQ-DPG par la suite). Un échantillon de référence est préparé également en diluant l'échantillon de 10 à 20 fois dans une solution d'eau et d'un quart de volume d'acétonitrile.
• 1. Étape de préconditionnement - Des puits à membrane filtrante sont pré-conditionnées avec un volume de 500 µl d'acétate d'ammonium 50mM pH 7,5 qui est passé à travers la membrane avec une centrifugation de 14000 g pendant 60 secondes. • 2. Étape de liaison - Un volume de 75 µl de la solution de collagénase à une concentration de 6,25mg/ml dans 50 mM d'acétate d'ammonium, avec un pH de 7.5 est mélangé avec 10 µl de l'échantillon pendant 10 min dans un tube d'Eppendorf en plastique. Dans ce mélange, on a 55,79 µM de collagénase et une gamme de 93,75 µM à 125 µM de ligands (3,5-DCQ et 3,5-DCQ-DPG) soit un ratio ligands/cible entre […]. • 3. Étape de lavage - Le mélange de l'enzyme et de l'échantillon est déposé dans un puits préconditionné à l'étape de préconditionnement, puis centrifugé à 14000 g jusqu'à l'élimination de l'essentiel du solvant. Les complexes enzyme-ligands restent à la surface de la membrane du filtre puis sont à nouveau suspendu dans un volume de 100 µL de la même solution à 50 mM d'acétate d'ammonium, avec un pH de 7.5 et centrifugé à 14000 g jusqu'à élimination du solvant. Cette procédure est répétée trois fois et élimine tous les composés qui ne sont pas liés à l'enzyme. • 4. Étape de séparation - Les complexes enzyme-ligands retenus dans le filtre sont à nouveau suspendus dans un volume de 10 µL d'eau ultra-pure, puis sont mélangés avec un volume de 40 µL d'acétonitrile pour dénaturer et précipiter l'enzyme et, en même temps libérer les ligands. Le mélange est centrifugé à 21000 g pendant 10 min pour séparer le précipité du surnageant. • 5. Étape d'analyse - Ledit surnageant formant la solution traitée est analysé par chromatographie en phase liquide couplée à une spectrométrie de masse. L'échantillon de référence est analysé également de la même manière, en utilisant les mêmes conditions d'analyse. Les affinités relatives sont calculées selon la méthode décrite ci-après. Le résultat est sur la première ligne du tableau 3.
Plusieurs échantillons sont préparés comme dans l'exemple 2, mais avec une proportion entre les ligands 3,5-DCQ et 3,5-DCQ-DPG non plus équimolaire mais déséquilibrée, comme indiqué dans le tableau 3 ci-après.
L'analyse est conduite de la même manière que dans l'exemple 2. Les résultats sont de la deuxième à la quatrième ligne du tableau 3.
La préparation des échantillons (ligands et cible) et leur analyse ont été réalisés selon l'exemple 2. Les effets des variations du rapport de ligands/cible ont été évalués.
Une analyse par chromatographie en phase liquide fournit un chromatogramme tel que montré par les figures 1 et 2. Le chromatogramme représente une intensité de signal en fonction du temps de rétention dans une colonne. Le signal présente différents pics d'intensité variable. Chaque pic est associé à l'un des ligands présent dans l'échantillon et la solution traitée. • 1. Normalisation de l'intensité du signal analytique pour les ligands dans l'échantillon de référence. […]

[5] = target: collagénase issue de Clostridium histolyticum; details: J. Nat. Prod. 2005, 68, 794-796; cited from earlier work
[6] = test system: collagénase issue de Clostridium histolyticum; assay: Collagenase inhibition with synthetic substrate FALGPA (Example 4); format: biochemical; details: for activité de la collagénase: ligand 5µM, FALGPA 1 mM, tris-HCl buffer alone = 100%
Method: L'activité inhibitrice de la collagénase issue de Clostridium histolyticum a été expérimentée en mettant en présence de la collagénase et du substrat synthétique FALGPA (N-(3-[2-Furyl]acryloyl)-Leu-Gly-Pro-Ala) préparé à une concentration de 1 mM, du tampon tris-HCI seul pour établir une référence, et en présence respectivement de tampon tris-HCI additionné de 3,5-DCQ et 3,5-DCQ-DPG en concentration à 5µM. La référence montrant une activité de la collagénase de 100%, on a mesuré une activité de la collagénase de 94% en présence de 3,5-DCQ et une activité de 50% en présence de 3,5-DCQ-DPG. A cette concentration, la collagénase de Clostridium histolyticum est inhibée de manière significative par le 3,5-DCQ-DPG, tandis qu'elle ne l'est que très peu par le 3,5-DCQ.

[7] = ex. 2, molar ratio 3,5-DCQ-DPG/3,5-DCQ 1/1 (équimolaire)
[8] = ex. 3.1, molar ratio 3,5-DCQ-DPG/3,5-DCQ 0,5/1
[9] = ex. 3.2, molar ratio 3,5-DCQ-DPG/3,5-DCQ 0,2/1
[10] = ex. 3.3, molar ratio 3,5-DCQ-DPG/3,5-DCQ 3/1

Compound: O=c1c(O)c(-c2ccc(O)c(O)c2)oc2cc(O)cc(O)c12 [quercétine]
- affinité (trypsine [1]): très faible affinité
- inhibition de la trypsine (trypsine [2]): 46%
- inhibition de l'hyaluronidase (hyaluronidase): 54%
- affinité [3]: affinité importante

Compound: O=C(/C=C/c1ccc(O)c(O)c1)OC1CC(O)(C(=O)O)CC(OC(=O)/C=C/c2ccc(O)c(O)c2)C1O (stereo not drawn) [3,5-DCQ, acide 3,5-dicaféoylquinique]
- Facteur de normalisation, solution traitée [4, 7]: 1,00
- Affinités relatives [4, 7]: 1,00
- Facteur de normalisation, solution traitée [4, 8]: 1,00
- Affinités relatives [4, 8]: 1,00
- Facteur de normalisation, solution traitée [4, 9]: 1,00
- Affinités relatives [4, 9]: 1,00
- Facteur de normalisation, solution traitée [4, 10]: 1,00
- Affinités relatives [4, 10]: 1,00
- IC50 [5]: 23.6 µM
- activité de la collagénase [6]: 94%

Compound: esters d'acide 3,5-dicaféoylquinique et de dipropylène glycol [3,5-DCQ-DPG]
- Facteur de normalisation, solution traitée [4, 7]: 6,03
- Affinités relatives [4, 7]: 5,21
- Facteur de normalisation, solution traitée [4, 8]: 2,49
- Affinités relatives [4, 8]: 4,05
- Facteur de normalisation, solution traitée [4, 9]: 0,81
- Affinités relatives [4, 9]: 3,01
- Facteur de normalisation, solution traitée [4, 10]: 13,64
- Affinités relatives [4, 10]: 4,09
- (RADCQ−DPG^Mx)/(RADCQ−DPG^Mref) ([4]; sample M_1: collagénase 32,1 µM, DCQ/DCQ-DPG 75/75 µM, ligands/collagénase 2,33, competition): 0,96
- (RADCQ−DPG^Mx)/(RADCQ−DPG^Mref) ([4]; sample M_2: collagénase 32,1 µM, DCQ/DCQ-DPG 50/50 µM, ligands/collagénase 1,56, competition): 0,71
- (RADCQ−DPG^Mx)/(RADCQ−DPG^Mref) ([4]; sample M_3: collagénase 32,1 µM, DCQ/DCQ-DPG 15/15 µM, ligands/collagénase 0,47, no competition): 0,47
- IC50 ([6]; approximate, from Example 4 (50% activity at 5µM)): ~5 µM
- activité de la collagénase [6]: 50%
